Experimental data published in patent US11046716B2, “Beta-lactamase inhibitors” (priority 2015, dated 2021).

Columns and labels:
SHV-5 = molecular target: T1, SHV-5 (Klebsiella pneumoniae, UniProt P0A3M1); test: β-lactamase enzyme inhibition assay, SHV-5 (cefotaxime substrate); type: biochemical
T1 construct: made in house; host or cells: E. coli BL21(DE3)
Summary of the method: (§1)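 Untagged enzyme from E. coli BL21(DE3), purified by Capto S then Superdex 75; 15 min 37 °C preincubation with inhibitor; KPC-2 read with imipenem at 300 nm, SHV-5 with cefotaxime at 260 nm, OXA-1 with nitrocefin 100 μM final at 486 nm; 10 min kinetic read; IC50 vs uninhibited wells.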

KPC-2 = molecular target: T2, KPC-2 (Klebsiella pneumoniae, UniProt Q9F663); test: β-lactamase enzyme inhibition assay, KPC-2 (imipenem substrate); type: biochemical; settings: Class A; imipenem substrate, 300 nm; read-out: KPC-2
T2 construct: made in house; host or cells: E. coli BL21(DE3)
T2 sequence (Q9F663 25-293, looked up): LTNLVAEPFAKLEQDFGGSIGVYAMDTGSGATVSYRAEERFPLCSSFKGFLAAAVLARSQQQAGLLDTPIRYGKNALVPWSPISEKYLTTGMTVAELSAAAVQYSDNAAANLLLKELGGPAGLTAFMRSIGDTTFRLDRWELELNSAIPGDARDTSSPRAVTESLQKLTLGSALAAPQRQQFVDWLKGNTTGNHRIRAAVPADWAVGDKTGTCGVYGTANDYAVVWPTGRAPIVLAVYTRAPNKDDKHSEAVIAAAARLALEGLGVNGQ
Summary of the method: as §1

VIM-2 = molecular target: T3, VIM-2 (Escherichia coli, UniProt Q5U7L7); test: β-lactamase enzyme inhibition assay, VIM-2 (nitrocefin substrate); type: biochemical; settings: Class B; nitrocefin substrate, 486 nm; read-out: VIM-2
T3 construct: made in house; host or cells: E. coli BL21(DE3)
Summary of the method: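 Metallo-β-lactamase VIM-2 activity was tracked spectrophotometrically at 486 nm with 100 μM nitrocefin over 10 min, following 15 min preincubation with compound at 37 °C; inhibition was calculated per concentration.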

AmpC = molecular target: T4, AmpC (Enterobacter cloacae, UniProt P05364); test: β-lactamase enzyme inhibition assay, p99 AmpC (nitrocefin substrate); type: biochemical
T4 construct: made in house; host or cells: E. coli BL21(DE3)
T4 sequence (P05364 21-381): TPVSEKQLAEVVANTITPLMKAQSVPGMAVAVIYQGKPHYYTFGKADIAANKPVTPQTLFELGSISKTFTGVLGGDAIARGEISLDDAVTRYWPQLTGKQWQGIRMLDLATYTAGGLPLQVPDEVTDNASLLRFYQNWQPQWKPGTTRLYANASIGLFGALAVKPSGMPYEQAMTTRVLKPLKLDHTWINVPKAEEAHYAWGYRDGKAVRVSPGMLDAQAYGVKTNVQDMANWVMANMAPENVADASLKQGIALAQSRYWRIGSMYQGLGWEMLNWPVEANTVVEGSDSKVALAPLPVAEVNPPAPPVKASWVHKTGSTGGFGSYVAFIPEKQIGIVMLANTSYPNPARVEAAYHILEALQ
Summary of the method: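 Untagged enzyme from E. coli BL21(DE3), purified by Capto S then Superdex 75; 15 min 37 °C preincubation with inhibitor; 10 min kinetic read; IC50 vs uninhibited wells.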

OXA-48 = OXA-48 (UniProt Q6XEC0); test: β-lactamase enzyme inhibition assay, Class D oxacillinase; type: biochemical; settings: read-out: OXA-48
[1] = system: E. coli expressing the Class A Extended Spectrum Beta-Lactamase (ESBL) CTX-M-15; test: Broth microdilution MIC assay with ceftazidime, E. coli CTX-M-15; type: cell-based; settings: Fixed CAZ (ceftazidime) 4 μg/mL; E. coli ESBL4 CTX-M-15
Summary of the method: (§2)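 In cation-adjusted Mueller Hinton broth, bacteria pre-grown 3-5 hours were exposed to test compound (2-fold, 16–0.125 μg/mL) plus a static 4 μg/ml β-lactam. A panel of control β-lactams was run alongside, and the compound MIC was judged by eye following 16-20 hours at 37° C.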

[2] = system: E. cloacae expressing the Class C P99; test: Broth microdilution MIC assay with ceftazidime, E. cloacae P99; type: cell-based; settings: Fixed CAZ (ceftazidime) 4 μg/mL; E. cl. 144200 p99 AmpC
Summary of the method: as §2

[3] = system: K. pneumoniae expressing the Class A carbapenemase KPC-2; test: Broth microdilution MIC assay with meropenem, K. pneumoniae KPC-2; type: cell-based; settings: Fixed Mero (meropenem) 4 μg/mL; K. p. 156319 KPC-3
Summary of the method: as §2

[4] = system: P. aeruginosa expressing the Class B carbapenemase VIM-2; test: Broth microdilution MIC assay with meropenem, P. aeruginosa VIM-2; type: cell-based; settings: Fixed Mero (meropenem) 4 μg/mL; P. aerug. 2775 VIM-2
Summary of the method: as §2

[5] = system: K. pneumoniae expressing the class A carbapenemase KPC-2 and the class B carbapenemase VIM-4; test: Broth microdilution MIC assay with meropenem, K. pneumoniae KPC-2 and VIM-4; type: cell-based; settings: Fixed Mero (meropenem) 4 μg/mL; K. p. A-1797 KPC-2 VIM-4
Summary of the method: as §2

[6] = system: K. pneumoniae producing the Class D carbapenemase OXA-48; test: Broth microdilution MIC assay with meropenem, K. pneumoniae OXA-48; type: cell-based; settings: Fixed Mero (meropenem) 4 μg/mL; K. p. 11978 OXA-48
Summary of the method: as §2

T1 sequence (P0A3M1 22-286): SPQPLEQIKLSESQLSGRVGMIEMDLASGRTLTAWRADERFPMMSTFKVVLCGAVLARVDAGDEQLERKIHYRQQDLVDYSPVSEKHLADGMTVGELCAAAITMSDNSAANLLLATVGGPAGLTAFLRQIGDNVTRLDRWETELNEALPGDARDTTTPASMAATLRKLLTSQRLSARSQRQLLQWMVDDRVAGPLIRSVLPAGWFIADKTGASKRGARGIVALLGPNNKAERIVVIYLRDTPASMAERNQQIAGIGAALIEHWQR

Row | Compound | IC50 (SHV-5) [nM] | IC50 (KPC-2) [nM] | IC50 (VIM-2) [nM] | IC50 (AmpC) [nM] | IC50 (OXA-48) [nM] | MIC (μg/mL) of Exemplary Compounds in presence of fixed β-lactams: E. coli ESBL4 CTX-M-15 [1] | MIC (μg/mL) of Exemplary Compounds in presence of fixed β-lactams: E. cl. 144200 p99 AmpC [2] | MIC (μg/mL) of Exemplary Compounds in presence of fixed β-lactams: K. p. 156319 KPC-3 [3] | MIC (μg/mL) of Exemplary Compounds in presence of fixed β-lactams: P. aerug. 2775 VIM-2 [4] | MIC (μg/mL) of Exemplary Compounds in presence of fixed β-lactams: K. p. A-1797 KPC-2 VIM-4 [5] | MIC (μg/mL) of Exemplary Compounds in presence of fixed β-lactams: K. p. 11978 OXA-48 [6]
1 | NCCOCc1cn(CC(=O)N[C@H]2Cc3cccc(C(=O)O)c3OB2O)nn1 [Example 34, (R)-3-(2-(4-((2-aminoethoxy)methyl)-1H-1,2,3-triazol-1-yl)acetamido)-2-hydroxy-3,4-dihydro-2H-benzo[e][1,2]oxaborinine-8-carboxylic acid] | < 100 | < 100 | 100 to 1000 | < 100 | 1000 to 10000 | C (C represents an MIC of <1 μg/mL) | C (C represents an MIC of <1 μg/mL) | B (B represents an MIC between 1 and 16 μg/mL inclusive) | C (C represents an MIC of <1 μg/mL) | B (B represents an MIC between 1 and 16 μg/mL inclusive) | B (B represents an MIC between 1 and 16 μg/mL inclusive)
2 | NC(=O)c1ncn(CC(=O)N[C@H]2Cc3cccc(C(=O)O)c3OB2O)n1 [Example 35, (R)-3-(2-(3-carbamoyl-1H-1,2,4-triazol-1-yl)acetamido)-2-hydroxy-3,4-dihydro-2H-benzo[e][1,2]oxaborinine-8-carboxylic acid] | < 100 | < 100 | 1000 to 10000 | < 100 | 1000 to 10000 | C (C represents an MIC of <1 μg/mL) | C (C represents an MIC of <1 μg/mL) | B (B represents an MIC between 1 and 16 μg/mL inclusive) | B (B represents an MIC between 1 and 16 μg/mL inclusive) | A (A represents an MIC>16 μg/mL) | B (B represents an MIC between 1 and 16 μg/mL inclusive)
3 | Nc1n[nH]c2ncc(-c3cn(CC(=O)N[C@H]4Cc5cccc(C(=O)O)c5OB4O)nn3)cc12 [Example 36] | < 100 | < 100 | 1000 to 10000 | < 100 | 100 to 1000 | C (C represents an MIC of <1 μg/mL) | C (C represents an MIC of <1 μg/mL) | B (B represents an MIC between 1 and 16 μg/mL inclusive) | B (B represents an MIC between 1 and 16 μg/mL inclusive) | A (A represents an MIC>16 μg/mL) | B (B represents an MIC between 1 and 16 μg/mL inclusive)
4 | NCCNC(=O)c1cn(CC(=O)N[C@H]2Cc3cccc(C(=O)O)c3OB2O)nn1 [Example 37, (R)-3-(2-(4-((2-aminoethyl)carbamoyl)-1H-1,2,3-triazol-1-yl)acetamido)-2-hydroxy-3,4-dihydro-2H-benzo[e][1,2]oxaborinine-8-carboxylic acid] | < 100 | < 100 | < 100 | < 100 | 1000 to 10000 | C (C represents an MIC of <1 μg/mL) | C (C represents an MIC of <1 μg/mL) | B (B represents an MIC between 1 and 16 μg/mL inclusive) | C (C represents an MIC of <1 μg/mL) | C (C represents an MIC of <1 μg/mL) | B (B represents an MIC between 1 and 16 μg/mL inclusive)
5 | CN(C)Cc1nnn(CC(=O)N[C@H]2Cc3cccc(C(=O)O)c3OB2O)c1CN(C)C [Example 38, (R)-3-(2-(4,5-bis((dimethylamino)methyl)-1H-1,2,3-triazol-1-yl)acetamido)-2-hydroxy-3,4-dihydro-2H-benzo[e][1,2]oxaborinine-8-carboxylic acid] | 100 to 1000 | < 100 | 100 to 1000 | < 100 | 100 to 1000 | B (B represents an MIC between 1 and 16 μg/mL inclusive) | C (C represents an MIC of <1 μg/mL) | B (B represents an MIC between 1 and 16 μg/mL inclusive) | B (B represents an MIC between 1 and 16 μg/mL inclusive) | B (B represents an MIC between 1 and 16 μg/mL inclusive) | B (B represents an MIC between 1 and 16 μg/mL inclusive)
6 | CC(C)(C(=O)N[C@H]1Cc2cccc(C(=O)O)c2OB1O)n1cc(CNC(=N)N)nn1 [Example 39, (R)-3-(2-(4-(guanidinomethyl)-1H-1,2,3-triazol-1-yl)-2-methylpropanamido)-2-hydroxy-3,4-dihydro-2H-benzo[e][1,2]oxaborinine-8-carboxylic acid] | < 100 | < 100 | < 100 | < 100 | 100 to 1000 | C (C represents an MIC of <1 μg/mL) | C (C represents an MIC of <1 μg/mL) | B (B represents an MIC between 1 and 16 μg/mL inclusive) | C (C represents an MIC of <1 μg/mL) | B (B represents an MIC between 1 and 16 μg/mL inclusive) | B (B represents an MIC between 1 and 16 μg/mL inclusive)
7 | O=C(Cc1nnn[nH]1)N[C@H]1Cc2cccc(C(=O)O)c2OB1O [Example 40, (R)-3-(2-(1H-tetrazol-5-yl)acetamido)-2-hydroxy-3,4-dihydro-2H-benzo[e][1,2]oxaborinine-8-carboxylic acid] | < 100 | < 100 | 1000 to 10000 | < 100 | 100 to 1000 | C (C represents an MIC of <1 μg/mL) | C (C represents an MIC of <1 μg/mL) | C (C represents an MIC of <1 μg/mL) | B (B represents an MIC between 1 and 16 μg/mL inclusive) | B (B represents an MIC between 1 and 16 μg/mL inclusive) | B (B represents an MIC between 1 and 16 μg/mL inclusive)
